The text below walks through data of patent publication US11332452B2, “Pesticidal compositions and methods” (priority 2019, dated 2022).

Common to all, as to format: in vivo
In series [1] the test system is Yellow Fever Mosquito (Aedes aegypti, AEDSAE). Kind of series: Insecticidal test for yellow fever mosquito (YFM), 96-well plate larval assay. To be noted: from 4000 ppm DMSO master solution, diluted; about 1 day-old larvae; room temperature; scored after 3 days. The procedure:
Insecticidal Test for Yellow Fever Mosquito (Aedes aegypti, AEDSAE) (“YFM”)
Master plates containing 400 μg of a molecule dissolved in 100 μL of dimethyl sulfoxide (DMSO) (equivalent to a 4000 ppm solution) are used. A master plate of assembled molecules contains 15 μL per well. To this plate, 135 μL of a 90:10 water/acetone mixture is added to each well. A robot (Biomek® NXP Laboratory Automation Workstation) is programmed to dispense 15 μL aspirations from the master plate into an empty 96-well shallow plate (“daughter” plate). There are 6 reps (“daughter” plates) created per master. The created “daughter” plates are then immediately infested with YFM larvae.
The day before plates are to be treated, mosquito eggs are placed in Millipore water containing liver powder to begin hatching (4 g. into 400 mL). After the “daughter” plates are created using the robot, they are infested with 220 μL of the liver powder/larval mosquito mixture (about 1 day-old larvae). After plates are infested with mosquito larvae, a non-evaporative lid is used to cover the plate to reduce drying. Plates are held at room temperature for 3 days prior to grading. After 3 days, each well is observed and scored based on mortality.

The subject of series [2] is Cabbage Looper (Trichloplusia Ni, TRIPNI). Kind of series: Insecticidal test for cabbage looper (CL), 128-well diet tray assay. Conditions: Trichoplusia ni, 168 h, read-out: CL % Control (or Mortality) rating. On the procedure: Insecticidal Test for Cabbage Looper (Trichloplusia Ni, TRIPNI) (“CL”)
(§1) Bioassays on cabbage looper (CL; Trichloplusia ni: Lepidoptera) are conducted using a 128-well diet tray assay. One to five second instar CL larvae are placed in each well (3 mL) of the diet tray that had been previously filled with 1 mL of artificial diet to which 50 μg/cm^2 of the test compound (dissolved in 50 μL of 90:10 acetone-water mixture) had been applied (to each of eight wells) and then allowed to dry. Trays are covered with a clear self-adhesive cover, vented to allow gas exchange, and held at 25° C., 14:10 light-dark for five to seven days. Percent mortality is recorded for the larvae in each well; activity in the eight wells is then averaged.

The subject of series [3] is Beet Armyworm (Spodoptera exigua, LAPHEG). Kind of series: Insecticidal test for beet armyworm (BAW), 128-well diet tray assay. To be noted: 168 h, 50 μg/cm^2 of test compound on artificial diet, second instar larvae, 25° C., five to seven days, average of eight wells, read-out: BAW % Control (or Mortality) rating. On the procedure:
Insecticidal Test for Beet Armyworm (Spodoptera exigua, LAPHEG) (“BAW”)
as §1, with “beet armyworm (BAW; Spodoptera exigua:” for “cabbage looper (CL; Trichloplusia ni:”, “BAW” for “CL”

Each structure is given as a SMILES string.

Turning to `O=C(/N=C1\SCC(=O)N1c1cc(Cl)ccc1OCC(F)(F)F)NCCc1ccc(NC(=O)Nc2ccc(OC(F)(F)F)cc2)cc1` [Compound A17, (Z)-1-(4-(2-(3-(3-(5-Chloro-2-(2,2,2-trifluoroethoxy)phenyl)-4-oxothiazolidin-2-ylidene)ureido)ethyl)phenyl)-3-(4-(trifluoromethoxy)phenyl)urea], the “YFM % Control (or Mortality) rating” value in series [1] is reported as “A (80-100)”. The mortality at 50 µg/cm2 in series [2] and in series [3] was 50 to 100% each time.

Regarding `CCCc1ccc(OC)cc1N1C(=O)CS/C1=N\C(=O)NCCc1ccc(NC(=O)Nc2ccc(OC(F)(F)F)cc2)cc1` [Compound A18, (Z)-1-(4-(2-(3-(3-(5-Methoxy-2-propylphenyl)-4-oxothiazolidin-2-ylidene)ureido)ethyl)phenyl)-3-(4-(trifluoromethoxy)phenyl)urea], the “YFM % Control (or Mortality) rating” value in series [1] is on record as “B (More than 0-Less than 80)”. Further, the mortality at 50 µg/cm2 in series [2] and in series [3] was 50 to 100% each time.

Take `Cc1ccc(OCC(F)(F)F)c(N2C(=O)CS/C2=N\C(=O)NCCc2ccc(NC(=O)Nc3ccc(OC(F)(F)F)cc3)cc2)c1` [Compound A19, (Z)-1-(4-(2-(3-(3-(5-Methyl-2-(2,2,2-trifluoroethoxy)phenyl)-4-oxothiazolidin-2-ylidene)ureido)ethyl)phenyl)-3-(4-(trifluoromethoxy)phenyl)urea]: in series [1], the “YFM % Control (or Mortality) rating” value was “B (More than 0-Less than 80)”. The mortality at 50 µg/cm2 in series [2] and in series [3] was 50 to 100% in each case.

With `CCC(C)Oc1ccc(C)cc1N1C(=O)CS/C1=N\C(=O)NCCc1ccc(NC(=O)Nc2ccc(OC(F)(F)F)cc2)cc1` (stereo not drawn) [Compound A20], the “YFM % Control (or Mortality) rating” value in series [1] is recorded as “B (More than 0-Less than 80)”. In addition, the mortality at 50 µg/cm2 in series [2] and in series [3] was 50 to 100% in each case.

For the compound `COc1ccc(N2C(=O)CS/C2=N\C(=O)NCCc2ccc(NC(=O)Nc3ccc(OC(F)(F)F)cc3)cc2)c(C)c1` [Compound A21, (Z)-1-(4-(2-(3-(3-(4-methoxy-2-methylphenyl)-4-oxothiazolidin-2-ylidene)ureido)ethyl)phenyl)-3-(4-(trifluoromethoxy)phenyl)urea], the “YFM % Control (or Mortality) rating” value in series [1] is “A (80-100)”. The mortality at 50 µg/cm2 in series [2] and in series [3] was 50 to 100% each time.

For the compound `Cc1ccc(C(C)C)c(-n2ccs/c2=N\C(=O)NCCc2ccc(NC(=O)Nc3ccc(OC(F)(F)F)cc3)cc2)c1` [Compound A22, (Z)-1-(4-(2-(3-(3-(2-Isopropyl-5-methylphenyl)thiazol-2(3H)-ylidene)ureido)ethyl)phenyl)-3-(4-(trifluoromethoxy)phenyl)urea], the “YFM % Control (or Mortality) rating” value in series [1] was “A (80-100)”. In addition, the mortality at 50 µg/cm2 in series [2] and in series [3] was 50 to 100% in each case.

As for `CCc1cccc(C)c1N1C(=O)CS/C1=N\C(=O)NCCc1ccc(NC(=O)Nc2ccc(OC(F)(F)F)cc2)cc1` [Compound A23, (Z)-1-(4-(2-(3-(3-(2-Ethyl-6-methylphenyl)-4-oxothiazolidin-2-ylidene)ureido)ethyl)phenyl)-3-(4-(trifluoromethoxy)phenyl)urea], the “YFM % Control (or Mortality) rating” value in series [1] is recorded as “A (80-100)”. In addition, the mortality at 50 µg/cm2 in series [2] and in series [3] was 50 to 100% throughout.

With `O=C(/N=C1\SCC(=O)N1c1cccc2c1CCCC2)NCCc1ccc(NC(=O)Nc2ccc(OC(F)(F)F)cc2)cc1` [Compound A24, (Z)-1-(4-(2-(3-(4-Oxo-3-(5,6,7,8-tetrahydronaphthalen-1-yl)thiazolidin-2-ylidene)ureido)ethyl)phenyl)-3-(4-(trifluoromethoxy)phenyl)urea], the “YFM % Control (or Mortality) rating” value in series [1] is “B (More than 0-Less than 80)”. In addition, the mortality at 50 µg/cm2 in series [2] and in series [3] was 50 to 100% throughout.

As for `Cc1cc(N2C(=O)CS/C2=N\C(=O)NCCc2ccc(NC(=O)Nc3ccc(OC(F)(F)F)cc3)cc2)c(C(C)C)cc1F` [Compound A25, (Z)-1-(4-(2-(3-(3-(4-Fluoro-2-isopropyl-5-methylphenyl)-4-oxothiazolidin-2-ylidene)ureido)ethyl)phenyl)-3-(4-(trifluoromethoxy)phenyl)urea], the “YFM % Control (or Mortality) rating” value in series [1] is reported as “A (80-100)”. For the same compound, the mortality at 50 µg/cm2 in series [2] and in series [3] was 50 to 100% throughout.

`Cc1ccc(C(C)C)c(N2C(=O)CS/C2=N\C(=O)NC(C)Cc2ccc(NC(=O)Nc3ccc(OC(F)(F)F)cc3)cc2)c1` (stereo not drawn) [Compound A26, (Z)-1-(3-(2-Isopropyl-5-methylphenyl)-4-oxothiazolidin-2-ylidene)-3-(1-(4-(3-(4-(trifluoromethoxy)phenyl)ureido)phenyl)propan-2-yl)urea]: in series [1], the “YFM % Control (or Mortality) rating” value is reported as “A (80-100)”. Besides, the mortality at 50 µg/cm2 in series [2] and in series [3] was 50 to 100% each time.

With `Cc1ccc(C(C)C)c(N2C(=O)CS/C2=N\C(=O)NC(C)Cc2ccc(NC(=O)Nc3ccc(C(F)(F)F)cc3)cc2)c1` (stereo not drawn) [Compound A27, (Z)-1-(4-(2-(3-(3-(2-Isopropyl-5-methylphenyl)-4-oxothiazolidin-2-ylidene)ureido)propyl)phenyl)-3-(4-(trifluoromethyl)phenyl)urea], in series [1], the “YFM % Control (or Mortality) rating” value is given as “A (80-100)”. The mortality at 50 µg/cm2 in series [2] and in series [3] was 50 to 100% throughout.

Regarding `CC(Cc1ccc(NC(=O)Nc2ccc(C(F)(F)F)cc2)cc1)NC(=O)/N=C1\SCC(=O)N1c1ccccc1C(C)C` (stereo not drawn) [Compound A28, (Z)-1-(4-(2-(3-(3-(2-Isopropylphenyl)-4-oxothiazolidin-2-ylidene)ureido)propyl)phenyl)-3-(4-(trifluoromethyl)phenyl)urea], the “YFM % Control (or Mortality) rating” value in series [1] is given as “A (80-100)”. In addition, the mortality at 50 µg/cm2 in series [2] and in series [3] was 50 to 100% throughout.

For the compound `CC(Cc1ccc(NC(=O)Nc2ccc(C(F)(F)F)cc2)cc1)NC(=O)/N=C1\SCC(=O)N1c1cc(Cl)ccc1C(C)C` (stereo not drawn) [Compound A29, (Z)-1-(4-(2-(3-(3-(5-Chloro-2-isopropylphenyl)-4-oxothiazolidin-2-ylidene)ureido)propyl)phenyl)-3-(4-(trifluoromethyl)phenyl)urea], the “YFM % Control (or Mortality) rating” value in series [1] is recorded as “A (80-100)”. For the same compound, the mortality at 50 µg/cm2 in series [2] and in series [3] was 50 to 100% each time.

`CCC(C)Oc1ccc(C)cc1N1C(=O)CS/C1=N\C(=O)NC(C)Cc1ccc(NC(=O)Nc2ccc(C(F)(F)F)cc2)cc1` (stereo not drawn) [Compound A30, (Z)-1-(4-(2-(3-(3-(2-(sec-Butoxy)-5-methylphenyl)-4-oxothiazolidin-2-ylidene)ureido)propyl)phenyl)-3-(4-(trifluoromethyl)phenyl)urea]: in series [1], the “YFM % Control (or Mortality) rating” value is recorded as “B (More than 0-Less than 80)”. Further, the mortality at 50 µg/cm2 in series [2] and in series [3] was 50 to 100% throughout.

In the case of `COc1ccc(N2C(=O)CS/C2=N\C(=O)NC(C)Cc2ccc(NC(=O)Nc3ccc(C(F)(F)F)cc3)cc2)c(C)c1` (stereo not drawn) [Compound A31, (Z)-1-(4-(2-(3-(3-(4-Methoxy-2-methylphenyl)-4-oxothiazolidin-2-ylidene)ureido)propyl)phenyl)-3-(4-(trifluoromethyl)phenyl)urea], the “YFM % Control (or Mortality) rating” value in series [1] is “A (80-100)”. Also, the values for the mortality at 50 µg/cm2 in series [2] and in series [3] were 50 to 100% and 0 to 50%, respectively.

On to `Cc1ccc(C(C)C)c(-n2ccs/c2=N\C(=O)NC(C)Cc2ccc(NC(=O)Nc3ccc(OC(F)(F)F)cc3)cc2)c1` (stereo not drawn) [Compound A33, (Z)-1-(4-(2-(3-(3-(2-Isopropyl-5-methylphenyl)thiazol-2(3H)-ylidene)ureido)propyl)phenyl)-3-(4-(trifluoromethoxy)phenyl)urea], for which, in series [1], the “YFM % Control (or Mortality) rating” value was “A (80-100)”. Also, the mortality at 50 µg/cm2 in series [2] and in series [3] was 50 to 100% each time.

As to `CC(Cc1ccc(NC(=O)Nc2ccc(OC(F)(F)F)cc2)cc1)NC(=O)/N=C1\SCC(=O)N1c1ccccc1C(C)C` (stereo not drawn) [Compound A34, (Z)-1-(4-(2-(3-(3-(2-Isopropylphenyl)-4-oxothiazolidin-2-ylidene)ureido)propyl)phenyl)-3-(4-(trifluoromethoxy)phenyl)urea], the “YFM % Control (or Mortality) rating” value in series [1] is “A (80-100)”. In addition, the mortality at 50 µg/cm2 in series [2] and in series [3] was 50 to 100% each time.
